Data taken from patent US6500824B1, “Kappa (OP2) opioid receptor antagonists” (Regents of the University of Minnesota, priority 1998, dated 2002).
Like-named read-outs stand apart in the source and are kept apart here. Marks after values point to notes of the source that are not given here.

Experiments:
[1] = target: T1, kappa (OP2) opioid receptor (Cavia porcellus, UniProt P41144); assay: Guinea pig ileal longitudinal muscle (GPI) smooth muscle assay, antagonism of ethylketazocine (EKC); format: cell-based; details: for kappa opioid receptor selectivity (in words): in vitro, versus morphine and DADLE antagonism
T1 construct: a strip of longitudinal muscle with the myenteric plexus attached was prepared; from tissue; host or cells: guinea pig ileal longitudinal muscle with myenteric plexus
Protocol: (§1) 1. Guinea Pig Ileal Longitudinal Muscle (GPI). Ilea from guinea pigs were taken approximately 10 cm from the ileocecal junction, and a strip of longitudinal muscle with the myenteric plexus attached was prepared by the method of H. B. Rang et al., Brit. J Pharmacol., 1964, 22, 356. A 1 cm portion of this strip was then mounted between two platinum electrodes placed in a 10 ml organ bath and connected to an isometric transducer, contractions were recorded on a polygraph. Contractions of the ileal strip were initiated by supramaximal rectangular pulses in all preparations (80 V of 0.5 ms duration at a frequency of 0.1 Hz). Krebs bicarbonate solution containing […] chloropheniramine maleate was the bathing solution and was continuously bubbled with 95% O2 and 5% CO2. The organ bath was maintained at 36-37° C. The longitudinal strip was allowed to equilibrate with continuous stimulation for a minimum of 90 min. Cumulative concentration-response curves were determined after drugs were added to the bath in preselected amounts and washed out with buffer after noting their maximum effects.
(§2) The standard agonists employed were [D-Ala^2, D-Leu^5]enkephalin (DADLE) (D), morphine (M) and ethylketazocine (EKC); these are selective for delta (D), mu (M) and kappa (EKC) opioid receptors, respectively. Concentration-response curves were obtained in the absence (control) and the presence of the antagonist and were determined as IC50 values. The IC50 ratio represents the IC50 in the presence of the antagonist divided by the control IC50 value in the same tissue. A concentration independent value of antagonist potency is calculated from the equation, Ke=[antagonist]/(IC50 ratio-1).

[2] = tested on: μ(OP3) opioid receptor; assay: Guinea pig ileal longitudinal muscle (GPI) smooth muscle assay, antagonism of morphine; format: cell-based; details: agonist morphine, antagonist concentration 100 nM
Protocol: as §1, §2

[3] = target: T2, δ(OP1) opioid receptor (Mus musculus, UniProt P32300); assay: Mouse vas deferens (MVD) smooth muscle assay, antagonism of DADLE; format: cell-based
T2 construct: Both vasa deferentia were dissected out of mice and mounted singly; from tissue; host or cells: mouse vas deferens
Protocol: 2. Mouse Vas Deferens (MvD). This assay was performed according to the description by G. Henderson et al., Brit. J. Pharmacol., 1972, 46,764. Both vasa deferentia were dissected out of mice and mounted singly through two platinum electrodes in a 10 ml organ bath. The bath contained Krebs bicarbonate solution that was continuously bubbled with 95% O2 and 5% CO2. The organ bath was maintained at 37° C. The tissue was attached to an isometric transducer and stimulated transmurally with rectangular pulses ([…], 1 ms duration, supramaximal voltage). Drugs were added cumulatively to the bath in preselected amounts and washed out after noting their maximum effects.
as §2

[4] = target: T3, mu opioid receptor (Mus musculus, UniProt P42866); assay: Mouse tail flick assay, antagonism of morphine (μ) by ICV antagonist; format: in vivo; details: antagonist ICV 50 pmol, agonist morphine
T3 construct: from tissue; host or cells: living mouse (ICV dosing)

[5] = target: T4, delta opioid receptor (Mus musculus, UniProt P32300); assay: Mouse tail flick assay, antagonism of DSLET (δ) by ICV antagonist; format: in vivo; details: antagonist ICV 50 pmol, agonist DSLET
T4 construct: from tissue; host or cells: living mouse (ICV dosing)

[6] = target: T5, kappa opioid receptor (Cavia porcellus, UniProt P41144); assay: GPI preparation, kappa antagonist potency against U-50488H; format: cell-based, guinea pig; details: for Kb: read-out: Ke
T5 construct: a strip of longitudinal muscle with the myenteric plexus attached was prepared; from tissue; host or cells: guinea pig ileal longitudinal muscle with myenteric plexus
Protocol: as §1

[7] = target: T6, wt κ receptor (Rattus norvegicus, UniProt P34975); assay: Competition binding with [3H]diprenorphine, whole cell binding, COS-7 cells, wt κ
T6 construct: expressed in transfected cells; host or cells: COS-7 (per the earlier reading)
Description: (§3) The effects of mutational exchange of Glu297 in the κ receptor and Lys303 in the μ receptor on the binding affinity of representative compounds of the invention were examined using techniques known in the art.

[8] = target: T7, κ[E297K] receptor (Rattus norvegicus, UniProt P34975, E297K); assay: Competition binding with [3H]diprenorphine, whole cell binding, COS-7 cells, κ[E297K]; details: for Fmut = mutational factor, Ki(mutant receptor)/Ki(wt κ receptor): κ[E297K]
T7 construct: expressed in transfected cells; host or cells: COS-7 (per the earlier reading)
Description: as §3

[9] = target: T8, wt μ receptor (Rattus norvegicus, UniProt P33535); assay: Competition binding with [3H]diprenorphine, whole cell binding, COS-7 cells, wt μ
T8 construct: expressed in transfected cells; host or cells: COS-7 (per the earlier reading)
Description: as §3

[10] = tested on: wt μ receptor; assay: as above; set-up: species or system rat; details: wt μ
Description: as §3

[11] = target: T9, μ[K303E] receptor (Rattus norvegicus, UniProt P33535, K303E); assay: Competition binding with [3H]diprenorphine, whole cell binding, COS-7 cells, μ[K303E]; details: for Fmut = mutational factor, Ki(mutant receptor)/Ki(wt κ receptor): μ[K303E]
T9 construct: expressed in transfected cells; host or cells: COS-7 (per the earlier reading)
Description: as §3

[12] = Butorphanol-induced feeding; format: in vivo; details: FIG. 3
Description: (§4) The ability of a compound to decrease butorphanol-, DAMGO-, U50,488-, 24-hour deprivation-, and Neuropeptide Y-induced feeding can be determined using models known in the art. See for example, A. S. Levine et al., Brain Research, 1998, 534, 60-64; and D. C. Jewett, et al., 1998, Society for Neuroscience Abstracts, 1, Abstract #276.10, 705.

[13] = DAMGO-induced feeding; format: in vivo; details: FIG. 4
Description: as §4

[14] = U50,488-induced feeding; format: in vivo; details: FIG. 5
Description: as §4

[15] = 24-hour deprivation-induced feeding; format: in vivo; details: FIG. 6
Description: as §4

[16] = Neuropeptide Y-induced feeding; format: in vivo; details: FIG. 7
Description: as §4

[17] = target: T10, kappa opioid receptor (Mus musculus, UniProt P33534); assay: Mouse abdominal stretch assay, antagonism of U-50488H antinociception by SC antagonist; format: in vivo; set-up: from tissue; host or cells: living mouse (SC dosing)
[18] = target: T10, kappa opioid receptor; assay: Mouse tail flick assay, antagonism of U-50488H (κ) by ICV antagonist; format: in vivo; set-up: from tissue; host or cells: living mouse (ICV or SC dosing)
[19] = GPI, agonist EKC, antagonist concentration 100 nM, read-out: Antagonist Potency Ke κ(OP2) EKC
[20] = in vitro smooth muscle Ke, relative to nor-BNI
[21] = [3H]diprenorphine competition, COS-7 whole cell binding, read-out: Ki ± SEM, wt κ
[22] = [3H]diprenorphine competition, COS-7 whole cell binding, read-out: Ki ± SEM, κ[E297K]

## Oc1ccc2c3c1O[C@H]1c4[nH]c5ccccc5c4C[C@@]4(O)[C@@H](C2)N(CC2CC2)CC[C@]314 [Naltrindole (NTI) 1, naltrindole, reference compound]
[1]; [19]
  Kb: 45 nM

## N=C(N)Nc1ccc2[nH]c3c(c2c1)C[C@@]1(O)[C@H]2Cc4ccc(O)c5c4[C@@]1(CCN2CC1CC1)[C@H]3O5.O.O.O=C(O)C(F)(F)F.O=C(O)C(F)(F)F [Compound 15, 5′-Guanidinyl-17-cyclopropylmethyl-6,7-didehydro-4,5-α-epoxy-3.14-dihydroxyindolo[2′,3′:6,7]morphinan Ditrifluoroacetate Dihydrate]
[1]; GPI, agonist EKC, antagonist concentration 20 nM (*)
  Antagonist Potency Ke κ(OP2) EKC: 0.144* nM
[1]; [20]
  selectivity ratio κ/δ, fold greater than that of nor-BNI: 42 fold
  selectivity ratio κ/μ, fold greater than that of nor-BNI: 9 fold
[1]; Ditrifluoroacetate Dihydrate
  kappa opioid receptor selectivity (in words): potent and highly selective
[2]
  Antagonist Potency Ke μ(OP3) Morphine: 30.00 nM
[3]; agonist DADLE, antagonist concentration 100 nM
  Antagonist Potency Ke δ(OP1) DADLE: 115 nM
[3]; in vitro
  delta antagonist activity of NTI associated with the compound (in words): little, if any
[4]
  ED50 Ratio (limits), Morphine (μ): 0.8 (0.5-1.2)
[5]
  ED50 Ratio (limits), DSLET (δ): 1.4 (1.0-2.2)
[6]; GPI, agonist U-50488H
  Kb: 0.041 nM
[6]; GPI, agonist U-50488H, relative to nor-BNI
  potency relative to nor-BNI, antagonism of U-50488H: 5 fold
[6]; δ agonist [D-Ala2, D-Leu5]enkephalin, κ agonist U-50488H
  Selectivity Ratio κ/δ: 2797
[6]; μ agonist morphine, κ agonist U-50488H
  Selectivity Ratio κ/μ: 728
[7]; [21]
  Ki: 0.09 ± 0.01 nM
[7]
  Fana = Ki(analog)/Ki(nor-BNI on the wt κ receptor): 0.75
[8]; [22]
  Ki: 12.9 ± 0.48 nM
[8]
  Fmut = mutational factor, Ki(mutant receptor)/Ki(wt κ receptor): 143
[9]; [3H]diprenorphine competition, COS-7 whole cell binding, read-out: Ki ± SEM, wt μ
  Ki: 9.23 ± 1.39 nM
[10]
  Fmut = mutational factor, Ki(mutant receptor)/Ki(wt κ receptor): 103
[11]; [3H]diprenorphine competition, COS-7 whole cell binding, read-out: Ki ± SEM, μ[K303E]
  Ki: 0.06 ± 0.02 nM
[11]
  Fmut = mutational factor, Ki(mutant receptor)/Ki(wt κ receptor): 0.67
[12]
  effect on Butorphanol-induced feeding: does not decreases
[13]
  effect on DAMGO-induced feeding: decreases
[14]
  effect on U50,488-induced feeding: decreases
[15]
  effect on 24-hour deprivation-induced feeding: decreases
[16]
  effect on Neuropeptide Y-induced feeding: does not decreases
[17]; SC, relative to nor-BNI
  potency relative to nor-BNI, SC-administered: greater than 50 times
[17]; antagonist SC 0.05 μmol kg−1, U-50488H SC
  ED50 Ratio (limits), U-50488H antinociception: 3.0 (1.9-5.0)
[17]; antagonist SC 2.0 μmol kg−1, U-50488H SC
  ED50 Ratio (limits), U-50488H antinociception: 3.8 (2.5-6.3)
[18]; in vivo studies, Tables 2 and 3
  in vivo kappa selectivity (in words): selective κ-antagonist
[18]; mouse tail flick, antagonist ICV 50 pmol, agonist U-50488H
  ED50 Ratio (limits), U-50488H (κ): 4.5 (3.4-6.3)

## N#C/N=C(\N)Nc1ccc2[nH]c3c(c2c1)C[C@@]1(O)C2Cc4ccc(O)c5c4[C@@]1(CCN2CC1CC1)C3O5 (stereo partly drawn) [Compound 19, 5′-N′-Cyano-N-[17-(cyclopropylmethyl)-6,7-didehydro4.5α-epoxy-3,14-dihydroxyindolo[2′,3′:6,7]morphinian]-Guanidine]
[1]
  Kb: 3.13 nM
  kappa opioid receptor selectivity (in words): demonstrated selectivity
[2]
  Antagonist Potency Ke μ(OP3) Morphine: 16.13 nM
[3]
  Kb: 9.08 nM
[7]
  Ki: 0.27 ± 0.01 nM
  Fana = Ki(analog)/Ki(nor-BNI on the wt κ receptor): 2.25
[8]
  Ki: 2.48 ± 0.82 nM
  Fmut = mutational factor, Ki(mutant receptor)/Ki(wt κ receptor): 9.2
[9]
  Ki: 4.04 ± 1.23 nM
[10]
  Fmut = mutational factor, Ki(mutant receptor)/Ki(wt κ receptor): 15
[11]
  Ki: 0.29 ± 0.05 nM
  Fmut = mutational factor, Ki(mutant receptor)/Ki(wt κ receptor): 1.1

## CN(C)CCCN/C(=N\C#N)Nc1ccc2[nH]c3c(c2c1)C[C@@]1(O)C2Cc4ccc(O)c5c4[C@@]1(CCN2CC1CC1)C3O5 (stereo partly drawn) [Compound 20, 5′-N-Cyano-N′-[3-(dimethylaminopropyl)]-N″-[17-(cyclopropylmethyl)6,7-didehydro4,5α-epoxy-3,14-dihydroxyindolo[2′,3′:6,7]morphinian]-guanidine]
[1]
  Kb: 0.24 nM
[2]
  Antagonist Potency Ke μ(OP3) Morphine: 10.4 nM

## Oc1ccc2c3c1O[C@H]1c4[nH]c5c(c4C[C@@]4(O)[C@@H](C2)N(CC2CC2)CC[C@]314)C[C@@]1(O)[C@H]2Cc3ccc(O)c4c3[C@@]1(CCN2CC1CC1)[C@H]5O4 [nor-BNI, norbinaltorphimine, reference compound]
[1]; [19]
  Kb: 0.56 nM
[2]
  Antagonist Potency Ke μ(OP3) Morphine: 13.7 nM
[6]; GPI, agonist U-50488H
  Kb: 0.2 nM
[7]; [21]
  Ki: 0.12 ± 0.04 nM
[8]; [22]
  Ki: 12.5 ± 0.92 nM
